In BigSolDB 2.1:

C[C@@H]1CC[C@H]2[C@@H](C)C(=O)O[C@@H]3O[C@@]4(C)CC[C@@H]1[C@]32OO4
solubility (mole fraction)
Conditions	283.15 K	288.15 K	293.15 K	298.15 K	303.15 K	308.15 K	313.15 K	318.15 K	323.15 K
in acetone	0.00388	0.0051	0.00673	0.00863	0.0114	0.0145	0.0181	0.0223	0.0278
in acetonitrile	0.000198	0.000257	0.000356	0.000518	0.000723	0.00103	0.00143	0.00196	0.0027
in chloroform	0.0487	0.0613	0.0795	0.101	0.127	0.157	0.193	0.236	0.287
in cyclohexane	0.00044	0.000585	0.000745	0.00106	0.00137	0.00171	0.00209	0.00265	0.00341
in ethyl acetate	0.00525	0.00786	0.0117	0.0153	0.0205	0.0282	0.0377	0.0499	0.0657
in methanol	0.000559	0.000773	0.00111	0.00145	0.00195	0.00267	0.00375	0.00477	0.00622
in toluene	0.0375	0.0435	0.052	0.0603	0.0711	0.0815	0.0937	0.107	0.122
